In brackets after ≈: the same amount, converted by molar mass. Read-outs that look alike come from different tables or passages of the source.

For data set [1] the following is noted: from the literature; cited from earlier work.
In data set [2] the test system is A. baumanni RCH. The data set is described as follows: Minimal inhibitory concentration on Muller-Hinton agar. Type of data set: cell-based. The settings on record: read-out: Minimal Inhibitory Concentration. The method, then:
(§1) The essential oils were also tested individually for their minimal inhibitory concentration.
(§2) The solution was first prepared at 40% in DMSO before being placed on the Muller-Hinton agar in the following manner in Table VIII:
(§3) Twenty-two different microorganisms were tested and their minimal inhibitory concentration was tested.

Data set [3] concerns Salmonell enteritidis 4. The description is as above. The class given is cell-based. The protocol:
as §1, §2, §3

In data set [4] the test system is K. oxyloca 0705C0187. The description is as above. Type of data set: cell-based. The method, then: as §1, §2, §3
For data set [5], the system named is A. baumanni CIP5377. Described as above. The class given is cell-based. The settings on record: read-out: Minimal Inhibitory Concentration. The method, then: as §1, §2, §3
Data set [6] has as its system E. coli 0705A0434. Described as above. The class given is cell-based. The settings on record: for Minimal Inhibitory Concentration: E. coli 0705A0434; for MIC: Escherichia coli. The protocol: as §1, §2, §3
Data set [7] deals with A. baumanni AYE. The data set is described as above. The class given is cell-based. The method, then: as §1, §2, §3
Data set [8] deals with P. aeroginosa ATCC27853. The data set is described as above. The settings on record: read-out: Minimal Inhibitory Concentration. The class given is cell-based. The protocol: as §1, §2, §3
Data set [9] has as its system E. aerogenes 0705A0867. The data set is described as above. The settings on record: for Minimal Inhibitory Concentration: E. aerogenes 0705A0867; for MIC: Klebsiella aerogenes. Type of data set: cell-based. The protocol: as §1, §2, §3
The subject of data set [10] is E. cloacae 0705A1743. The data set is described as above. Type of data set: cell-based. The protocol:
as §1, §2, §3

Data set [11] deals with A. baumanni SAN008. The description is as above. Type of data set: cell-based. The protocol:
as §1, §2, §3

The subject of data set [12] is S. aureus 0706C0025. The data set is described as above. Type of data set: cell-based. The settings on record: for Minimal Inhibitory Concentration: S. aureus 0706C0025; for MIC: Staphylococcus aureus. The method, then:
as §1, §2, §3

For data set [13], the system named is S. aureus 0702E0196. Described as above. Type of data set: cell-based. The settings on record: for Minimal Inhibitory Concentration: S. aureus 0702E0196; for MIC: Staphylococcus aureus. The protocol:
as §1, §2, §3

Data set [14] concerns E. coli ATCC25922. The data set is described as above. Type of data set: cell-based. The method, then:
as §1, §2, §3

Data set [15] concerns A. baumanni CIP7034. Described as above. The class given is cell-based. The protocol:
as §1, §2, §3

Data set [16] has as its system A. baumanni CIP107292. The description is as above. Type of data set: cell-based. The protocol:
as §1, §2, §3

For data set [17], the system named is P. aeroginosa 0704C0134. Described as above. The class given is cell-based. The protocol: as §1, §2, §3
In data set [18] the test system is S. aureus ATC25923. Described as above. The class given is cell-based. The settings on record: for Minimal Inhibitory Concentration: S. aureus ATC25923; for MIC: Staphylococcus aureus. The method, then: as §1, §2, §3
The test system of data set [19] is S. aureus 0703H0036. The data set is described as above. The settings on record: for Minimal Inhibitory Concentration: S. aureus 0703H0036; for MIC: Staphylococcus aureus. The class given is cell-based. The method, then: as §1, §2, §3
Data set [20] concerns A. baumanni 12. The description is as above. The class given is cell-based. The settings on record: read-out: Minimal Inhibitory Concentration. The method, then: as §1, §2, §3
In data set [21] the test system is S. aureus 0701A0095. Described as above. The class given is cell-based. The settings on record: for MIC: Staphylococcus aureus. The method, then:
as §1, §2, §3

Data set [22] concerns P. aeroginosa 0703C0259. Described as above. The class given is cell-based. The protocol:
as §1, §2, §3

As to `CN(C)[C@@H]1C(O)=C(C(N)=O)C(=O)[C@@]2(O)C(O)=C3C(=O)c4c(O)ccc(Cl)c4[C@@H](O)[C@H]3C[C@@H]12` [Demeclocyclin], the “LD50 in mice by intraperitoneal injection” value (“LD50 in mice” for short) in data set [1] was 120 mg/kg.
With `CC[C@H]1OC(=O)[C@H](C)[C@@H](O[C@H]2C[C@@](C)(OC)[C@@H](O)[C@H](C)O2)[C@H](C)[C@@H](O[C@@H]2O[C@H](C)C[C@H](N(C)C)[C@H]2O)[C@](C)(O)C[C@@H](C)C(=O)[C@H](C)[C@@H](O)[C@]1(C)O` [Erythromycin], in data set [1], the “LD50 in mice” value is on record as 280 mg/kg.
With `CO[C@@H]1[C@@H](O[C@@H]2O[C@H](C)[C@@H](O[C@H]3C[C@@](C)(O)[C@@H](OC(=O)CC(C)C)[C@H](C)O3)[C@H](N(C)C)[C@H]2O)[C@@H](CC=O)C[C@@H](C)[C@@H](O)/C=C/C=C/C[C@@H](C)OC(=O)C[C@H]1OC(C)=O` [Josamycin], the “LD50 in mice” value in [1] was 780 mg/kg.
For `CCN1CCN(C(=O)N[C@@H](C(=O)N[C@@H]2C(=O)N3[C@@H]2SC(C)(C)[C@@H]3C(=O)O)c2ccccc2)C(=O)C1=O` [Piperacillin], the “LD50 in mice” value in [1] is reported as 9970 mg/kg.
For `[H]/N=C(/N)N[C@H]1[C@H](O)[C@@H](O)[C@H](O[C@@H]2O[C@@H](C)[C@](O)(C=O)[C@H]2O[C@@H]2O[C@@H](CO)[C@H](O)[C@@H](O)[C@@H]2NC)[C@@H](N/C(N)=N\[H])[C@@H]1O` [Streptomycin], the “LD50 in mice” value in data set [1] is listed as 525 mg/kg.
On to `Cc1ccc(C(C)C)cc1O` [carvacrol], for which the MIC amounted to 1000 µg/mL (≈ 6.66 mM) in data set [2]; 2000 µg/mL (≈ 13.3 mM) in data set [3] (read-out: Minimal Inhibitory Concentration, Salmonell enteritidis 4); 1500 µg/mL (≈ 9.99 mM) in data set [4] (read-out: Minimal Inhibitory Concentration, K. oxyloca 0705C0187); 1000 µg/mL (≈ 6.66 mM) in [5]; 1500 µg/mL (≈ 9.99 mM) in data set [6] (0705A0434, read-out: Minimal Inhibitory Concentration, E. coli 0705A0434); 1000 µg/mL (≈ 6.66 mM) in data set [7] (read-out: Minimal Inhibitory Concentration, A. baumanni AYE). Further, the MIC in data set [8] came out at 7500 µg/mL (≈ 49.9 mM); in data set [9] (0705A0867, read-out: Minimal Inhibitory Concentration, E. aerogenes 0705A0867) it was 1500 µg/mL (≈ 9.99 mM); in [10] (Enterobacter cloacae, 0705A1743, read-out: Minimal Inhibitory Concentration, E. cloacae 0705A1743), 1500 µg/mL (≈ 9.99 mM); in [11] (read-out: Minimal Inhibitory Concentration, A. baumanni SAN008) it was 1000 µg/mL (≈ 6.66 mM); in data set [12] (0706C0025, read-out: Minimal Inhibitory Concentration, S. aureus 0706C0025), 1500 µg/mL (≈ 9.99 mM); in data set [13] (0702E0196, read-out: Minimal Inhibitory Concentration, S. aureus 0702E0196), 1500 µg/mL (≈ 9.99 mM). In addition, the MIC was 1500 µg/mL (≈ 9.99 mM) in data set [14] (Escherichia coli, ATCC25922, read-out: Minimal Inhibitory Concentration, E. coli ATCC25922); 1000 µg/mL (≈ 6.66 mM) in data set [15] (read-out: Minimal Inhibitory Concentration, A. baumanni CIP7034); 1000 µg/mL (≈ 6.66 mM) in [16] (read-out: Minimal Inhibitory Concentration, A. baumanni CIP107292); 2500 µg/mL (≈ 16.6 mM) in data set [17] (read-out: Minimal Inhibitory Concentration, P. aeroginosa 0704C0134); 1500 µg/mL (≈ 9.99 mM) in [18] (ATC25923, read-out: Minimal Inhibitory Concentration, S. aureus ATC25923); 1500 µg/mL (≈ 9.99 mM) in data set [19] (0703H0036, read-out: Minimal Inhibitory Concentration, S. aureus 0703H0036). In addition, the MIC was 1500 µg/mL (≈ 9.99 mM) in [20] and 1500 µg/mL (≈ 9.99 mM) in data set [21] (0701A0095, read-out: Minimal Inhibitory Concentration). Also, the “Minimal Inhibitory Concentration” value in data set [3] (Salmonell enteritidis 4) amounted to 2.5 mg/mL; in data set [4] (K. oxyloca 0705C0187), 2 mg/mL; in data set [6] it was 2 mg/mL; in data set [7] (A. baumanni AYE), 1.5 mg/mL; in [9], 2 mg/mL; in data set [10] (E. cloacae 0705A1743) it was 2 mg/mL. In addition, the “Minimal Inhibitory Concentration” value is 1.5 mg/mL in data set [11] (A. baumanni SAN008); 2 mg/mL in data set [12]; 1 mg/mL in data set [13]; 2 mg/mL in [14] (E. coli ATCC25922); 1.5 mg/mL in data set [15] (A. baumanni CIP7034); 1.5 mg/mL in data set [16] (A. baumanni CIP107292). Moreover, the “Minimal Inhibitory Concentration” value in data set [17] (P. aeroginosa 0704C0134) is 5 mg/mL; in [18], 0.75 mg/mL; in [19], 2 mg/mL.
Regarding `O=C/C=C/c1ccccc1` [trans cinnamaldehyde], the “Minimal Inhibitory Concentration” value in [3] (Salmonell enteritidis 4), in [4] (K. oxyloca 0705C0187), in data set [6], in data set [7] (A. baumanni AYE), in data set [9] and in [11] (A. baumanni SAN008) was 2 mg/mL each time. Moreover, the “Minimal Inhibitory Concentration” value in data set [12] worked out at 0.5 mg/mL; in data set [13], 1.5 mg/mL; in data set [17] (P. aeroginosa 0704C0134), 2 mg/mL; in data set [18] it was 1.5 mg/mL; in data set [19], 1.5 mg/mL; in data set [22], 2 mg/mL. Further, the “Minimal Inhibitory Concentration” value in [21] (S. aureus 0701A0095) came out at 1.5 mg/mL. For the same compound, the MIC amounted to 1000 µg/mL (≈ 7.57 mM) in data set [3] (Salmonell enteritidis 4, read-out: Minimal Inhibitory Concentration); 1000 µg/mL (≈ 7.57 mM) in [4] (K. oxyloca 0705C0187, read-out: Minimal Inhibitory Concentration); 1000 µg/mL (≈ 7.57 mM) in data set [6] (0705A0434, E. coli 0705A0434, read-out: Minimal Inhibitory Concentration); 1000 µg/mL (≈ 7.57 mM) in data set [7] (A. baumanni AYE, read-out: Minimal Inhibitory Concentration); 1000 µg/mL (≈ 7.57 mM) in data set [9] (0705A0867, E. aerogenes 0705A0867, read-out: Minimal Inhibitory Concentration); 1000 µg/mL (≈ 7.57 mM) in [11] (A. baumanni SAN008, read-out: Minimal Inhibitory Concentration). The MIC in data set [12] (0706C0025, S. aureus 0706C0025, read-out: Minimal Inhibitory Concentration) amounted to 750 µg/mL (≈ 5.67 mM); in data set [13] (0702E0196, S. aureus 0702E0196, read-out: Minimal Inhibitory Concentration) it was 1000 µg/mL (≈ 7.57 mM); in [15] (A. baumanni CIP7034, read-out: Minimal Inhibitory Concentration), 1000 µg/mL (≈ 7.57 mM); in data set [17] (P. aeroginosa 0704C0134, read-out: Minimal Inhibitory Concentration), 1000 µg/mL (≈ 7.57 mM); in data set [18] (ATC25923, S. aureus ATC25923, read-out: Minimal Inhibitory Concentration) it was 750 µg/mL (≈ 5.67 mM); in [19] (0703H0036, S. aureus 0703H0036, read-out: Minimal Inhibitory Concentration), 750 µg/mL (≈ 5.67 mM). Further, the MIC in data set [20] (A. baumanni 12) amounted to 1000 µg/mL (≈ 7.57 mM); in data set [22], 1500 µg/mL (≈ 11.3 mM); in [21] (0701A0095, S. aureus 0701A0095, read-out: Minimal Inhibitory Concentration), 750 µg/mL (≈ 5.67 mM).
As for Gentamicin, the “LD50 in mice” value in data set [1] is 245 mg/kg.
